Reference: patent publication US20240150293A1, “SPIROCYCLOHEXANE DERIVATIVES, PHARMACEUTICAL COMPOSITIONS CONTAINING THEM AND THEIR USES AS ANTI-APOPTOTIC INHIBITORS” (LES LABORATOIRES SERVIER, priority 2021, published 2024)

Molecular target: Cy5-labelled Mcl1 (amino acids 171-321) C286S protein (UniProtKB Q07820) (Homo sapiens (Human), UniProt Q07820, C286S)
Test: Inhibition of Mcl-1 by the fluorescence quenching assay (Example A, Method B)
Format: binding
Conditions: not given
Description: Fluorescence quenching assay measures the change fluorescence intensity of C-terminally Cy5-labelled Mcl1 (amino acids 171-321) C286S protein (UniProtKB® primary accession number Q07820) having an amino acid sequence:
which is linked at the C-terminus to the amino acid X which corresponds to a cysteine labelled on the sulfur with sulpho-Cyanine5 from Lumiprobe GmbH catalogue number 13380, upon binding of a C-terminally labelled peptide derived from PUMA (UniProtKB® primary accession number Q9BXH1) having an amino acid sequence:
which is linked at the C-terminus to the amino acid X′, where X′ is cysteine labelled on the sulfur with TQ5WS from AAT Bioquest catalogue number 2079.
The addition of a compound which binds competitively to the same site as the peptide will result in an increase in the fluorescence intensity of the protein due to displacement of the fluorescence quencher.
An 11-point serial dilution of each compound was prepared in DMSO, the final buffer conditions were 10 mM 4-(2-hydroxyethyl)-1-piperazineethanesulfonic acid [HEPES], 150 mM NaCl, 0.05% Tween 20, pH 7.4 and 5% DMSO. The final protein concentration in the assay was 1 nM with the peptide present at 10, 20 or 400 nM. The experiments were incubated for 2 hours at room temperature before fluorescence intensity was measured on a Biotek SynergyNeo plate reader (Excitation 620 nm, emission 680 nm). The dose response curves were plotted with XL-Fit software using a 4-Parameter Logistic Model (Sigmoidal DoseResponse Model) and the inhibitory concentrations that gave a 50% increase in fluorescence intensity was determined (IC50). The Ki values were determined from the IC50 values according to Cer et al, Nucleic Acids Res, 2009, 37 (WebServer issue): W441-W445. Inhibition constants (Ki) are determined from complete binding inhibition curves (cKi) or from estimated from incomplete binding inhibition curves (eKi) in most cases due to low activity.

Sequence of Cy5-labelled Mcl1 (amino acids 171-321) C286S protein (Q07820 171-321 C286S): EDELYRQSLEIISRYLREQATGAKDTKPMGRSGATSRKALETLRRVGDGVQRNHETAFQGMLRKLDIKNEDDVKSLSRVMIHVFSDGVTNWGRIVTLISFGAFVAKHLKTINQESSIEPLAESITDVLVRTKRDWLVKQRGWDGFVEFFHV

Row | Ki | SMILES
1 | 72.9 nM | Cc1cc(OCCC[C@@H]2Cc3ccccc3[C@]23CC[C@@](Nc2cccc(Cl)c2)(C(=O)O)CC3)c2cc[nH]c2c1 [Example 487, (1r,2′R,4R)-4-(3-chloroanilino)-2′-{3-[(6-methyl-1H-indol-4-yl)oxy]propyl}-2′,3′-dihydrospiro[cyclohexane-1,1′-indene]-4-carboxylic acid]
2 | 152 nM | Cc1cc(OCCC[C@H]2Cc3ccccc3[C@]23CC[C@@](Nc2cccc(Cl)c2)(C(=O)O)CC3)c2cc[nH]c2c1 [Example 488, (1r,2′S,4S)-4-(3-chloroanilino)-2′-{3-[(6-methyl-1H-indol-4-yl)oxy]propyl}-2′,3′-dihydrospiro[cyclohexane-1,1′-indene]-4-carboxylic acid]
3 | 76 nM | Cc1ccc2[nH]ccc2c1OCCC[C@@H]1Cc2ccccc2[C@]12CC[C@@](Nc1cccc(Cl)c1)(C(=O)O)CC2 [Example 489, (1r,2′R,4R)-4-(3-chloroanilino)-2′-{3-[(5-methyl-1H-indol-4-yl)oxy]propyl}-2′,3′-dihydrospiro[cyclohexane-1,1′-indene]-4-carboxylic acid]
4 | 61.8 nM | Cc1ccc2[nH]ccc2c1OCCC[C@H]1Cc2ccccc2[C@]12CC[C@@](Nc1cccc(Cl)c1)(C(=O)O)CC2 [Example 490, (1r,2′S,4S)-4-(3-chloroanilino)-2′-{3-[(5-methyl-1H-indol-4-yl)oxy]propyl}-2′,3′-dihydrospiro[cyclohexane-1,1′-indene]-4-carboxylic acid]
5 | 63.8 nM | O=C(O)[C@]1(Nc2cccc(Cl)c2)CC[C@@]2(CC1)c1ccccc1CC2CC(F)(F)COc1ccnc2c1CCC2 (stereo partly drawn) [Example 503, (1r,4r)-4-(3-chloroanilino)-2′-{3-[(6,7-dihydro-5H-cyclopenta[b]pyridin-4-yl)oxy]-2,2-difluoropropyl}-2′,3′-dihydrospiro[cyclohexane-1,1′-indene]-4-carboxylic acid]

More lines, now with the values behind:

Row | SMILES | Ki
6 | O=C(O)[C@]1(Nc2cccc(Cl)c2)CC[C@@]2(CC1)c1ccccc1C[C@H]2CCCOc1cccc2[nH]ccc12 [Example 485, (1r,2′R,4R)-4-(3-chloroanilino)-2′-{3-[(1H-indol-4-yl)oxy]propyl}-2′,3′-dihydrospiro[cyclohexane-1,1′-indene]-4-carboxylic acid] | 45.5 nM
7 | O=C(O)[C@]1(Nc2cccc(Cl)c2)CC[C@@]2(CC1)c1ccccc1C[C@@H]2CCCOc1cccc2[nH]ccc12 [Example 486, (1r,2′S,4S)-4-(3-chloroanilino)-2′-{3-[(1H-indol-4-yl)oxy]propyl}-2′,3′-dihydrospiro[cyclohexane-1,1′-indene]-4-carboxylic acid] | 82 nM

Same assay, conditions: Ki determined from IC50

Row | Ki | SMILES
8 | 57.4 nM | Cc1cc2c(cc1C)[C@]1(CC[C@@](Nc3cccc(Cl)c3)(C(=O)O)CC1)C(Br)=C2 [Example 140, (1s,4s)-2′-bromo-4-(3-chloroanilino)-5′,6′-dimethylspiro[cyclohexane-1,1′-indene]-4-carboxylic acid]
9 | 91.6 nM | Cc1cccc2c1C=C(Br)[C@]21CC[C@](Nc2cccc(Cl)c2)(C(=O)O)CC1 [Example 141, (1s,4s)-2′-bromo-4-(3-chloroanilino)-4′-methylspiro[cyclohexane-1,1′-indene]-4-carboxylic acid]
10 | 37.1 nM | O=C(O)[C@]1(Nc2cccc(Cl)c2)CC[C@]2(CC1)C(CCOc1ccnc3ccsc13)=Cc1ccccc12 [Example 178, (1r,4r)-4-(3-chloroanilino)-2′-{2-[(thieno[3,2-b]pyridin-7-yl)oxy]ethyl}spiro[cyclohexane-1,1′-indene]-4-carboxylic acid]
11 | 1250 nM | O=C(O)[C@]1(Nc2cccc(Cl)c2)CC[C@]2(CC1)C(CCc1ccccn1)=Cc1ccccc12 [Example 199, (1r,4r)-4-(3-chloroanilino)-2′-[2-(pyridin-2-yl)ethyl]spiro[cyclohexane-1,1′-indene]-4-carboxylic acid]
12 | 139 nM | O=C(O)[C@]1(Nc2cccc(Cl)c2)CC[C@]2(CC1)C(CCc1ccccc1)=Cc1ccccc12 [Example 200, (1r,4r)-4-(3-chloroanilino)-2′-(2-phenylethyl)spiro[cyclohexane-1,1′-indene]-4-carboxylic acid]
